The numbers were not newly measured in patent US10130562B2, “Monomer mixture for the preparation of dental materials” (Ivoclar Vivadent AG, priority 2014, dated 2018), which cites them from elsewhere.

For one data set, the system named is rat. Particulars: in vivo.

Structures are written as SMILES. Some results are limits rather than exact numbers.

Usually LD50 stands for the dose expected to kill half of the subjects tested. For `C=C(C)C(=O)OCCOCCOCCOC(=O)C(=C)C` [TEGDMA, triethylene glycol dimethacrylate], the “gene mutations in the DNA molecules of mammals” value in the data set with DNA molecules of mammals was “leads to gene mutations”. In the data set on rat, the 50% lethal dose (LD50) was > 5000 mg/kg.
